Reference: patent US10398751B2, “Pharmaceutical compositions of water soluble peptides with poor solubility in isotonic conditions and methods for their use” (STRONGBRIDGE IRELAND LIMITED, priority 2016, dated 2019)
Read-outs that look alike come from different tables or passages of the source.

Key:
[1] = Comparative surface tension of peptides in water for injection; format: physicochemical; conditions: 10 mg/ml in WFI; for Effect of reduced surface tension (%): baseline WFI; for Water surface tension (dyne/cm): baseline WFI 52
[2] = Emulsification of cottonseed oil and water for injection; format: physicochemical; conditions: 16.6 weight % cottonseed oil, 74.2 weight % WFI, 9.2 weight % peptide, room temperature
Description: Based on its amphiphilic properties, veldoreotide acetate was evaluated by means of emulsion formulation. […] Thus, veldoreotide acetate may be considered a w/o ionic surfactant or hydrotrope with a hydrophilic lipophilic balance (HLB) of 6.
The samples were mixed using 25G syringe and vortexed at room temperature.
Veldoreotide was formulated as a water in oil emulsion using 80% (wt %) cottonseed oil, 20% (wt %) water for injection (WFI) and 1% (wt %) veldoreotide acetate. Specifically, 10 mg of veldoreotide acetate was dissolved in 200 uL WFI in a 5 mL glass vial, 800 mg of cottonseed oil was added and the resulting mixture was stirred under magnetic stirring at room temperature for 15 minutes at 1000 rpm. The emulsion was then viewed under the light microscope and stored under refrigeration. The resulting emulsion was stable and found to be injectable via 27G needle.

[3] = cited from earlier work
[4] = Density, pH and surface tension of solutions (capillary method); format: physicochemical
Description: Tween 80 was used as a control surfactant for comparison. Densities were measured on 1 mL fixed volume samples. […] The effect of veldoreotide acetate on the pH of double distilled water (DDW) was the same at all veldoreotide acetate concentrations. The pH of DDW of 5.0 was reduced to pH 4.5. The effect of veldoreotide acetate on the density of DDW (starting density of DDW was 1.003 g/ml) was concentration dependent from 1.4 mg/ml to 21.5 mg/ml with density ranging from 0.986 to 0.998 g/ml respectively. However, at veldoreotide acetate concentrations of 45 and 102 mg/ml the density was increased above the starting density of DDW. […] The effect of veldoreotide acetate on the surface tension of DDW (starting surface tension was 64.9 dyne/cm) was consistent with veldoreotide acetate behaving as a peptide amphiphile (surfactant). The surface tension of DDW was reduced by veldoreotide acetate at maximum from 64.9 to 45 dyne/cm. In order to elucidate the meaning of this effect, Tween 80 was used as a reference surfactant. Other surfactants include Polexamer 188. The reduction of surface tension induced by Tween 80 was in the range of 40% (from 64.9 dyne/cm to about 39 dyne/cm), in comparison to veldoreotide acetate of 30% (from 64.9 dyne/cm to about 45 dyne/cm). Note that, under these experimental conditions; the effect of Tween 80 indicated a concentration-effect relationship. Whereas, the effect of veldoreotide acetate on the reduction of surface tension was at the same range for all concentrations tested.
The data of table 4 show the surface activity of highly concentrated COR005 acetate (200 mg/ml), with or without additives in WFI, which emulates the preparation conditions of the primary emulsion of the microspheres. The results of Test 1 and 2 (Table 4) show the effect of COR005 acetate on the surface tension of water. When COR005 acetate is dissolved in water the surface tension is reduced by about 36%, from 68.5 dyne/cm for the water alone to 44 dyne/cm for the solution of water with CR005 acetate at 200 mg/ml.

% change in surface tension compared to baseline ([4]; 7 mg/ml in DDW, 25° C.) | Density (g/ml) Weighted 1 ml ([4]; 7 mg/ml in DDW, 25° C.) | Surface tension (dyne/cm) capillary method ([4]; 7 mg/ml in DDW, 25° C.) | % change in surface tension compared to baseline ([4]; 14 mg/ml in DDW, 25° C.) | Density (g/ml) Weighted 1 ml ([4]; 14 mg/ml in DDW, 25° C.) | Surface tension (dyne/cm) capillary method ([4]; 14 mg/ml in DDW, 25° C.) | % change in surface tension compared to baseline ([4]; 28 mg/ml in DDW, 25° C.) | Density (g/ml) Weighted 1 ml ([4]; 28 mg/ml in DDW, 25° C.) | Surface tension (dyne/cm) capillary method ([4]; 28 mg/ml in DDW, 25° C.) | surface tension of DDW solution ([4]; DDW pH 5.0, 25° C., baseline 64.9 dyne/cm (text summary, concentration not specified)) | reduction of surface tension of water ([4]; DDW, 25° C., baseline 64.9 dyne/cm) | Compound | Effect of reduced surface tension (%) [1] | Water surface tension (dyne/cm) [1] | emulsification [2] | surface area ([3]; microspheres prepared from PLGA and octreotide acetate with 0 glucose (Biomaterials, 2004, 25, 1919-1927)) | surface area ([3]; microspheres prepared from PLGA and octreotide acetate with 0.2% of glucose (Biomaterials, 2004)) | surface area ([3]; microspheres prepared from PLGA and octreotide acetate with 1% of glucose (Biomaterials, 2004))
 |  |  |  |  |  |  |  |  |  |  | CC(C)C[C@H](NC(=O)[C@@H](COC(C)(C)C)NC(=O)[C@H](Cc1ccc(O)cc1)NC(=O)[C@H](CO)NC(=O)[C@H](Cc1c[nH]c2ccccc12)NC(=O)[C@H](Cc1cnc[nH]1)NC(=O)[C@@H]1CCC(=O)N1)C(=O)N[C@@H](CCCNC(=N)N)C(=O)N1CCC[C@H]1C(=O)NNC(N)=O [Goserelin] | −37% | 33 dyne/cm | least potential for emulsion formation |  |  | 
 |  |  |  |  |  |  |  |  |  |  | C[C@@H](O)[C@@H]1NC(=O)[C@H](CCCCN)NC(=O)[C@@H](Cc2c[nH]c3ccccc23)NC(=O)[C@H](Cc2ccccc2)NC(=O)[C@@H](NC(=O)[C@H](N)Cc2ccccc2)CSSC[C@@H](C(=O)N[C@H](CO)[C@@H](C)O)NC1=O [Octreotide] | −27% | 38 dyne/cm | weak emulsification efficiency | 4.4 m^2/g | 4.7 m^2/g | 4.9 m^2/g
−39% | 0.9945 g/mL | 39.6 dyne/cm | −39% | 0.988 g/mL | 39.35 dyne/cm | −40% | 0.975 g/mL | 38.8 dyne/cm | about 39 dyne/cm | ~40% | CCCCCCCC/C=C\CCCCCCCC(=O)OCCOCC(OCCO)C1OCC(OCCO)C1OCCO (centres unmarked) [Tween 80, reference compound] |  |  |  |  |  | 
